The record followed here is patent US10059717B2, “Urea compounds containing 3,4-dihydropyrimido[4,5-D]pyrimidin-2(1H)-one skeleton as protein kinase inhibitors” (KOREA INSTITUTE OF SCIENCE AND TECHNOLOGY, priority 2016, dated 2018).

One assay deals with T1, GCK (Homo sapiens, UniProt Q12851).
T1 sequence (Q12851 1-820): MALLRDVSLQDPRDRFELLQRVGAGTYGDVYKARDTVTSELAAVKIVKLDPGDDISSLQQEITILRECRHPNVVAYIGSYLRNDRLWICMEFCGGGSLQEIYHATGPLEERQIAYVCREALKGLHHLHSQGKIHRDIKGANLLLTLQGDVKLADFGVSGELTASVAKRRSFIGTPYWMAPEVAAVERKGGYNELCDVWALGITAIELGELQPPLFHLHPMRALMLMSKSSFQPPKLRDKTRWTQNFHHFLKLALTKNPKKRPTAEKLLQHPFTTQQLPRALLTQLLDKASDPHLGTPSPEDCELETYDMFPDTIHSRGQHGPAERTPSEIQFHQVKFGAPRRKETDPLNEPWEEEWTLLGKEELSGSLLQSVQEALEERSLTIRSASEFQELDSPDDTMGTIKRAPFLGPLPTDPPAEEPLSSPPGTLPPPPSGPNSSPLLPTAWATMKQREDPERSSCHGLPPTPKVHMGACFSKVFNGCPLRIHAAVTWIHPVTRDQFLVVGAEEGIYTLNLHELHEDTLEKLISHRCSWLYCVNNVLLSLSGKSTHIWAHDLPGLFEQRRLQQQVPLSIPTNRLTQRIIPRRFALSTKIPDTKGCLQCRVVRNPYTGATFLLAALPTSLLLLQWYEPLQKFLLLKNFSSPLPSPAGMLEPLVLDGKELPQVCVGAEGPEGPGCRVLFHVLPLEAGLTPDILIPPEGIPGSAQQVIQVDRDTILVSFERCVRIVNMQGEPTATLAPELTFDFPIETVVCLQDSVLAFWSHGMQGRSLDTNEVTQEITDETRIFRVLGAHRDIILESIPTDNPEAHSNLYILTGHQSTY
Briefly: GCK kinase inhibitory activity. Conditions: read-out: Kinase inhibitory efficacy, GI50 GCK. In kind it is biochemical. Here is the method: (§1) GI50 values were calculated by measuring the inhibitory efficacy of the compounds of the present invention against both GCK and ACK1 kinases.

The next assay concerns U937 (N-Ras WT). Briefly: Proliferation inhibitory activity, U937. In kind it is cell-based. Conditions: Homo sapiens, U-937; U937 (N-Ras WT) cell line; read-out: Proliferation inhibitory efficacy (GI50, μM) U937 (N-Ras WT). On the procedure: (§2) GI50 values were calculated by measuring the proliferation inhibitory efficacy of the compounds of the present invention on mt-NRAS (G12D) Ba/F3, U937 (wt-NRAS) and OCI-AML3 (mt-NRAS) cell lines.

Another assay addresses IR (Homo sapiens, UniProt P06213). Nature of the assay: Kinase panel biochemical assay. Conditions: 1 μM single concentration, read-out: % residual enzyme activity. In outline: (§3)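 Values reflect one-concentration (1 μM) biochemical testing; inhibition is derived from the percent of kinase activity that remains.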
A further assay deals with FLT1NEGFR1 (Homo sapiens, UniProt P17948). Briefly: Kinase panel biochemical assay. Conditions: 1 μM single concentration, read-out: % residual enzyme activity. In outline: as §3
Sequence of FLT1NEGFR1 (P17948 27-1338): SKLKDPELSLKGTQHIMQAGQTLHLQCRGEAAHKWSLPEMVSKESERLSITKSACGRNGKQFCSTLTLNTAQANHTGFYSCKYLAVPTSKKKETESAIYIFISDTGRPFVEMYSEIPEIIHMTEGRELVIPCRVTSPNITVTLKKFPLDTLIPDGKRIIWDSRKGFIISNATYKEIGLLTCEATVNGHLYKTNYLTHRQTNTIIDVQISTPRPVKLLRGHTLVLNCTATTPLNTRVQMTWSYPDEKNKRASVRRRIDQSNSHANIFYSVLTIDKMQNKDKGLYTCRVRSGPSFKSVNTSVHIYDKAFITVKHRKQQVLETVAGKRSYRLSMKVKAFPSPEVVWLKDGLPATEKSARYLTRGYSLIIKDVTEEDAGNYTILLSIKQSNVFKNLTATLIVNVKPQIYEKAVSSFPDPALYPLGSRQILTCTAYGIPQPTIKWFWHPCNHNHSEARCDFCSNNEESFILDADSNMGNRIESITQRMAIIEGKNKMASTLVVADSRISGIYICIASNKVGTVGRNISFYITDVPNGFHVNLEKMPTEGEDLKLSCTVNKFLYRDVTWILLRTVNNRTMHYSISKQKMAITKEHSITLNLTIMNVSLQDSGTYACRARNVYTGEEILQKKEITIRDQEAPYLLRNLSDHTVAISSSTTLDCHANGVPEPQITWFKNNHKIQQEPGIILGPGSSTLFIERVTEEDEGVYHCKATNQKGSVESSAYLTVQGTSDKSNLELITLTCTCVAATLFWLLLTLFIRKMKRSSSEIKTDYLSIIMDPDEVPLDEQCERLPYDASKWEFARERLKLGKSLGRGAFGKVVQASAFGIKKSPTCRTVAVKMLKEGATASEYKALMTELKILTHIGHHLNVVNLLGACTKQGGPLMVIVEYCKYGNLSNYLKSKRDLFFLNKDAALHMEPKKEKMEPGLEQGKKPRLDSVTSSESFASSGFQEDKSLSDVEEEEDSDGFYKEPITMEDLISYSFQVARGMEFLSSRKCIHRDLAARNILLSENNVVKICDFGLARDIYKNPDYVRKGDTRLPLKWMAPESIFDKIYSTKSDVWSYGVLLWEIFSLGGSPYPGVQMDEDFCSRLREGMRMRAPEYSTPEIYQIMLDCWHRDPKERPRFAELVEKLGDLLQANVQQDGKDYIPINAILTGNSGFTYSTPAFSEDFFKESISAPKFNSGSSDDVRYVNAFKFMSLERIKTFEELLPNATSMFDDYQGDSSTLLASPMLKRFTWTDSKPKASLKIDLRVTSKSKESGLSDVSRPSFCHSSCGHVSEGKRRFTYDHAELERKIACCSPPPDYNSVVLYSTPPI
The target in the next assay is EPHB3 (Homo sapiens, UniProt P54753). Nature of the assay: Kinase panel biochemical assay. To be noted: 1 μM single concentration, read-out: % residual enzyme activity. In outline:
as §3

For the next assay, the target named is TAK1 (Homo sapiens, UniProt O43318). Briefly: Kinase panel biochemical assay. To be noted: 1 μM single concentration, read-out: % residual enzyme activity. In outline: as §3
Sequence of TAK1 (O43318 1-303 limits assumed): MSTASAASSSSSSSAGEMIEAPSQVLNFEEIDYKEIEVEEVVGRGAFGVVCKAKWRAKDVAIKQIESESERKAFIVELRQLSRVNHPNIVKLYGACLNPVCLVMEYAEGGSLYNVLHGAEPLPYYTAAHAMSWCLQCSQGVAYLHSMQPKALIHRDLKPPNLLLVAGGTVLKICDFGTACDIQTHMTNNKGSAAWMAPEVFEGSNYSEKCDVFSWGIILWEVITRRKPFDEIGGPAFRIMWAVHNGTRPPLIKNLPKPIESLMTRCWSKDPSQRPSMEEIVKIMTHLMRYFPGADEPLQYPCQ
In assay [1] the target is T2, ACK1 (Homo sapiens, UniProt Q07912). Nature of the assay: Kinase panel biochemical assay. Conditions: 1 μM single concentration, read-out: % residual enzyme activity. In outline: as §3
T2 sequence (Q07912 whole entry): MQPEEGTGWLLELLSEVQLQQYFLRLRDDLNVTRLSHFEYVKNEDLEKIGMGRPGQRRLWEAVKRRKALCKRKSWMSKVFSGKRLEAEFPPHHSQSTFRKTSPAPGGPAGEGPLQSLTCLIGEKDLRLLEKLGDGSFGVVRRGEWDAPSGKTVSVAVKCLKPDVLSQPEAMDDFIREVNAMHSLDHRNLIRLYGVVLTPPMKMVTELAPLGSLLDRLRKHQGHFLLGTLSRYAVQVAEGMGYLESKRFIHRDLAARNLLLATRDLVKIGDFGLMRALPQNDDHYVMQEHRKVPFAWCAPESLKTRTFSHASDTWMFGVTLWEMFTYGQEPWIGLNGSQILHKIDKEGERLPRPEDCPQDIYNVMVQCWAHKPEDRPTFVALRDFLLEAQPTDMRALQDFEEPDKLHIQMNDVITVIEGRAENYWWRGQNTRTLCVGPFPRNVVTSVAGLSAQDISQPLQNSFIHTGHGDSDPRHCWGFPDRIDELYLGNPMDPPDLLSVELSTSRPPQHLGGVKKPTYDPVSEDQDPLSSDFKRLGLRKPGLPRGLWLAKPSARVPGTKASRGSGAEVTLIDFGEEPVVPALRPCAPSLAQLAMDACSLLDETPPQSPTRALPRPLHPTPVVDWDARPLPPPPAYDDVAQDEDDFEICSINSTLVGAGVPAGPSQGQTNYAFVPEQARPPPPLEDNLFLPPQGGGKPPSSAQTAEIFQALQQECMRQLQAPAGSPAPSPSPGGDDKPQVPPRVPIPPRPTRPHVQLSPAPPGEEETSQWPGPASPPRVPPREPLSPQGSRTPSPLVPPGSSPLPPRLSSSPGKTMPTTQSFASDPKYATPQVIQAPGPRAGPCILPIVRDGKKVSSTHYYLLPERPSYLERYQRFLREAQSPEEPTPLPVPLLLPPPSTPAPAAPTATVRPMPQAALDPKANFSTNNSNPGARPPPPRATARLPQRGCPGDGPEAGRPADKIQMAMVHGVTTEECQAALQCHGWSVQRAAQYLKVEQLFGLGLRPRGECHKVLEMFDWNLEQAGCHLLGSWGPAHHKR
The target of the next assay is SRMS (Homo sapiens, UniProt Q9H3Y6). Briefly: Kinase panel biochemical assay. To be noted: 1 μM single concentration, read-out: % residual enzyme activity. In outline:
as §3

In the next assay the target is p70S6K/RPS6KB1 (Homo sapiens, UniProt P23443). Briefly: Kinase panel biochemical assay. To be noted: 1 μM single concentration, read-out: % residual enzyme activity. In outline: as §3
Sequence of p70S6K/RPS6KB1 (P23443 whole entry): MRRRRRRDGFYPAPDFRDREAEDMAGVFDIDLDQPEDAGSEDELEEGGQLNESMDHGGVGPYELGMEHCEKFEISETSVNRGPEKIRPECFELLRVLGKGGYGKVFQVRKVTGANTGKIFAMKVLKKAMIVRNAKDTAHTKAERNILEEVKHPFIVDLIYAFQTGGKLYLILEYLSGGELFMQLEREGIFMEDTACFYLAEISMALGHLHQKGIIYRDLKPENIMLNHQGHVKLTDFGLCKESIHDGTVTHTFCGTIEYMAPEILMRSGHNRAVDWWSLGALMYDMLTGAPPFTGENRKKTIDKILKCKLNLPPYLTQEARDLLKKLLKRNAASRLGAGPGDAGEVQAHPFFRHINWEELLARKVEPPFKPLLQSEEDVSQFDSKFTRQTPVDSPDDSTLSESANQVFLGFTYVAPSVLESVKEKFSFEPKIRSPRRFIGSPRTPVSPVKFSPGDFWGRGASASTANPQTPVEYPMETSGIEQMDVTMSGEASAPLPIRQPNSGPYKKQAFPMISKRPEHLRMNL
The test system of the next assay is OCI-AML3 (N-Ras Q61L). Nature of the assay: Proliferation inhibitory activity, OCI-AML3. In kind it is cell-based. Conditions: Homo sapiens, OCI-AML-3; OCI-AML3 (N-Ras Q61L) cell line; read-out: Proliferation inhibitory efficacy (GI50, μM) OCI-AML3 (N-Ras Q61L). On the procedure: as §2
Accordingly, the compounds of the present invention are particularly effective as a therapeutic agent for acute myelogenous leukemia (AML).

For a further assay, the system named is Ba/F3 (N-Ras G12D). Briefly: Proliferation inhibitory activity, Ba/F3. In kind it is cell-based. Conditions: Mus musculus, BaF3; Ba/F3 (N-Ras G12D) cell line; read-out: Proliferation inhibitory efficacy (GI50, μM) Ba/F3 (N-Ras G12D). On the procedure: as §2
The target in assay [2] is T2, ACK1. Briefly: ACK1 kinase inhibitory activity. In kind it is biochemical. To be noted: read-out: Kinase inhibitory efficacy, GI50 ACK1. On the procedure:
as §1

Sequence of IR (P06213 28-1382): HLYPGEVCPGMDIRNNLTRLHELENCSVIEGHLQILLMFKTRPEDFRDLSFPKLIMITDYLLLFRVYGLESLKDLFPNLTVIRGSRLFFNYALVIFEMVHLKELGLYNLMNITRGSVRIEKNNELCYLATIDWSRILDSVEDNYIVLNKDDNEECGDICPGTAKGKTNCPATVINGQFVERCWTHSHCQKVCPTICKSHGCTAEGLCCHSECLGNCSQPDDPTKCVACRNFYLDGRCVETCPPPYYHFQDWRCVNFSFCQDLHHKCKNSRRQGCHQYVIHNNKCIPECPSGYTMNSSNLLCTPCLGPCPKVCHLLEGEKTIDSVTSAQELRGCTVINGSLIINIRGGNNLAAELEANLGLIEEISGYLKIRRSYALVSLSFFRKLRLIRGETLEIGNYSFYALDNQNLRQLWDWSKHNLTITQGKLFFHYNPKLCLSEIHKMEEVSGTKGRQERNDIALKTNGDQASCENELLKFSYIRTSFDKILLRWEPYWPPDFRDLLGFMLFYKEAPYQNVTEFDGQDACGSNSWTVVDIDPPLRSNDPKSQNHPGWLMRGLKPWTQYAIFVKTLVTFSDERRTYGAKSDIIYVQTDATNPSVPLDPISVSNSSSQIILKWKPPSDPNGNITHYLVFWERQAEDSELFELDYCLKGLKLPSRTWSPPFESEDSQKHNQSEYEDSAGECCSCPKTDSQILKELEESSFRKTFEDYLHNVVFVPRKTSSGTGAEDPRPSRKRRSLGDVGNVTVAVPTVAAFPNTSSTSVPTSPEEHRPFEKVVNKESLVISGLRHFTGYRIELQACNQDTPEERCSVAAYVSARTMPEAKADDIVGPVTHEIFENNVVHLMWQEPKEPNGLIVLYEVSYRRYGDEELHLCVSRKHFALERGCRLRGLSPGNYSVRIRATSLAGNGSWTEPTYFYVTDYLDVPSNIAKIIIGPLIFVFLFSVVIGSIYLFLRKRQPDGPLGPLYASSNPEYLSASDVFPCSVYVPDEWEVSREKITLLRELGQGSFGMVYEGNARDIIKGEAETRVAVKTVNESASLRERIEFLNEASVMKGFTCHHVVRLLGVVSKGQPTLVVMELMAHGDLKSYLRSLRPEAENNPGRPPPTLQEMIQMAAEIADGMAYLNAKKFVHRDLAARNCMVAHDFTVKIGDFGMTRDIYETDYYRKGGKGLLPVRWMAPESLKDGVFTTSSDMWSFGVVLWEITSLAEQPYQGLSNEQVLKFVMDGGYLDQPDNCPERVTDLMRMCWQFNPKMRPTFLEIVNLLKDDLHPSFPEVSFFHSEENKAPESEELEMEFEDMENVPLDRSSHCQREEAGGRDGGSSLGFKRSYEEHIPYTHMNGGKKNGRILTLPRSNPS
Sequence of SRMS (Q9H3Y6 whole entry): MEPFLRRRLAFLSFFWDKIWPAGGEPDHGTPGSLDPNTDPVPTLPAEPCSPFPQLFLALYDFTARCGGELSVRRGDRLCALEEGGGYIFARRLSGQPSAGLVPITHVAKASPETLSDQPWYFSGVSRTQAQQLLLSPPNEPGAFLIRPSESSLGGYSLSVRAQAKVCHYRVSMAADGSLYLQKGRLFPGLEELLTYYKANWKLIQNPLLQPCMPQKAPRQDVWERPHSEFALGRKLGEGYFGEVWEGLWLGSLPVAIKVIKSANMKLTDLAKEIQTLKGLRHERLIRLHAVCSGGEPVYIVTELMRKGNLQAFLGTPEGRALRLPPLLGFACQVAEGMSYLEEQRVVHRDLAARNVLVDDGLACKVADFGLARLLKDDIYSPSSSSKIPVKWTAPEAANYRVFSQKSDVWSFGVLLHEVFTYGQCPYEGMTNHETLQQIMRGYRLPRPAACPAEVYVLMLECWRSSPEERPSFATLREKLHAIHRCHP

Regarding `CCN1CCN(C(=O)c2ccc(Nc3ncc4c(n3)N(C)C(=O)N(c3cc(NC(=O)Nc5ccccc5OC)ccc3C)C4)cn2)CC1` [Compound No. 14, 1-(3-(7-((6-(4-ethylpiperazin-1-carbonyl)pyridin-3-yl)amino)-1-methyl-2-oxo-1,4-dihydropyrimido[4,5-d]pyrimidin-3(2H)-yl)-4-methylphenyl)-3-(2-methoxyphenyl)urea], the GI50 at GCK was less than 30 nM; in the assay on U937 (N-Ras WT) it was not below 5 µM; with OCI-AML3 (N-Ras Q61L), less than 0.5 µM; in the assay with Ba/F3 (N-Ras G12D) it was 0.5 to 3 µM; on ACK1 [2] it was less than 30 nM. The remaining activity at 1 µM on IR, at FLT1NEGFR1, on EPHB3, on TAK1, at ACK1 [1] and at SRMS was not above 30% each time. On p70S6K/RPS6KB1, the remaining activity at 1 µM was not above 30%.
